According to patent US10266528B2, “2-oxo-imidazopyridines as reversible BTK inhibitors and uses thereof” (Merck Patent GmbH, priority 2016, dated 2019):

Columns and labels:
full-length human BTK = full-length human BTK (Homo sapiens (Human), UniProt Q06187); assay: Microfluidic off-chip mobility shift kinase assay against BTK enzyme; format: biochemical; details: 90 min at 27° C.
Experimental: Example 23. Microfluidic Off-Chip Mobility Shift Assay Protocol for Potency Assessment Against BTK Enzyme
The protocol below describes microfluidic, off-chip mobility shift kinase assay to measure inherent potency of compounds against BTK enzyme.
5 uL of enzyme buffer and 7.5 uL of ATP/kinKDR peptide substrate mix were added to Matrix (#115304) 384-well, sterile, polypropylene plates (Thermo Fisher Scientific, Hudson, N.H.) with 125 nL of serially diluted compounds prepared in 100% DMSO, and incubated for 90 min. at 27° C. Following the incubation period, reactions were stopped by adding 60 uL stop buffer consisting of 100 mM HEPES, pH 7.5, 0.015% Brij-35 (30%), 0.277% Coating Reagent #3 (Caliper Life Sciences, Mountain View, Calif.), 5% DMSO. Stopped reactions were monitored at −2 PSI, −3000 V/−700 V in a LabChip 3000 plate reader from Caliper Life Sciences, a PerkinElmer Company (Hopkinton, Mass.), and the activity was measured by off-chip mobility shift assay measuring the charge/mass difference between substrate and product resulting from peptide phosphorilation. IC50 and efficacy were determined by plotting log [Inhibitor] vs. % Activity in GeneData Screener (Basel, Switzerland).

[1] = test system: anti-IgM-induced expression of CD69 in human peripheral blood mononuclear cells (PBMCs); assay: PBMC IC50 assay: anti-IgM-induced CD69 expression on CD19 positive cells; format: cell-based; details: anti-IgM stimulation, CD69 expression on CD19 positive B cells
Experimental: Btk is critical for mediating the signalling of B cell antigen receptor (BCR) after anti-IgM stimulation. Based on this principle, a functional cell-based assay was established to determine the potency of compounds at inhibiting anti-IgM-induced expression of CD69, a downstream BCR signaling event, in freshly isolated human peripheral blood mononuclear cells (PBMCs). In the assay, a 90 μl PBMC suspension containing 2.5×10^5 cells was pre-treated with 10 μl of test compound at various concentrations for an hour, and then incubated overnight (approximately 16-18 hours) with 5 μl 420 μg/ml affiniPure F(ab′)2 fragment goat anti-human IgM Fc fragment per well (Dianova, Cat. No.: 109-006-129). After the incubation, the cells were washed and immunostained with an APC-labeled mouse anti-human CD69 (BD Biosciences; clone: FN50), a PerCP-Cy5.5 labelled mouse anti-human CD19 (BD Biosciences; clone: SJ25C1) and a FITC-labelled mouse anti-human CD3 (BD Biosciences; clone: HIT3a), and fixed for flow cytometric analysis of CD69 expression on CD19 positive cells (B cells). The percentage of CD69 expressing CD19 positive cells was plotted against the concentrations of test compounds to obtain a concentration response curve, and calculate an IC50 value as a measure of the potency of test compounds in the assay.

WB = WB IC50 (no method described); format: cell-based

full-length human BTK, sequence (Q06187 whole entry): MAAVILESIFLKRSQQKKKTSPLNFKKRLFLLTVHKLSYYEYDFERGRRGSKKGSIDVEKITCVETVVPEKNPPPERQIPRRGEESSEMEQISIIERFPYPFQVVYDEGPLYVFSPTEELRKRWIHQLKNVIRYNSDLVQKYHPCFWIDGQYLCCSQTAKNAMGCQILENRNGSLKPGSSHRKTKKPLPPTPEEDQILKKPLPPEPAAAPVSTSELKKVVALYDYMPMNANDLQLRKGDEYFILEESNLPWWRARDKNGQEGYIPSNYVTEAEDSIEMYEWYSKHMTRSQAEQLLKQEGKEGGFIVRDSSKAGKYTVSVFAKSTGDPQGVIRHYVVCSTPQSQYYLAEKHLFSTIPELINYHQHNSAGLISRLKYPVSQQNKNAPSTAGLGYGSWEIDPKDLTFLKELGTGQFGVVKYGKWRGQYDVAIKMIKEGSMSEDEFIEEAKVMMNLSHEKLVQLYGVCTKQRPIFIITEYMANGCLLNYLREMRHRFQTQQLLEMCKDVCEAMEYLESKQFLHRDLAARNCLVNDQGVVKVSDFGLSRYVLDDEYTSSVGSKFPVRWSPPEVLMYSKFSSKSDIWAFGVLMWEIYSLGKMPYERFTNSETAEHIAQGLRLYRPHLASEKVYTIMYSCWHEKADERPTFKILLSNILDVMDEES

Row | IC50 (full-length human BTK) [nM] | IC50 (WB) [nM] | Compound | IC50 ([1]; Homo sapiens, PBMC) [nM] | IC50 [1] [nM]
1 | 10 to 100 |  | CC(C)(C)c1noc(C(=O)NC2CCCCc3cc(-c4ccnc5[nH]c(=O)[nH]c45)ccc32)n1 (single isomer, unassigned) [Compound 13, 3-tert-Butyl-[1,2,4]oxadiazole-5-carboxylic Acid [2-(2-oxo-2,3-dihydro-1H-imidazo[4,5-b]pyridin-7-yl)-6,7,8,9-tetrahydro-5H-benzocyclohepten-5-yl]-amide] |  | 
2 | < 10 | 100 to 1000 | CC(C)(C)c1noc(C(=O)NCc2ccc(-c3ccnc4[nH]c(=O)[nH]c34)cc2C(F)(F)F)n1 [Compound 1, 3-tert-Butyl-[1,2,4]oxadiazole-5-carboxylic Acid 4-(2-oxo-2,3-dihydro-1H-imidazo[4,5-b]pyridine-7-yl)-2-trifluoromethyl-benzylamide] | 100 to 1000 | 
3 | < 10 | 100 to 1000 | CC(C)(C)c1noc(C(=O)NCc2ccc(-c3ccnc4[nH]c(=O)[nH]c34)cc2F)n1 [Compound 2, 3-tert-Butyl-[1,2,4]oxadiazole-5-carboxylic Acid 2-fluoro-4-(2-oxo-2,3-dihydro-1H-imidazo[4,5-b]pyridine-7-yl)-benzylamide] | 100 to 1000 | 
4 | 10 to 100 |  | CC(C)(C)c1nc(C(=O)NCc2ccc(-c3ccnc4[nH]c(=O)[nH]c34)cc2F)no1 [Compound 3, 5-tert-Butyl-[1,2,4]oxadiazole-3-carboxylic Acid 2-fluoro-4-(2-oxo-2,3-dihydro-1H-imidazo[4,5-b]pyridin-7-yl)-benzylamide] |  | 
5 | 10 to 100 |  | O=C(NCc1ccc(-c2ccnc3[nH]c(=O)[nH]c23)cc1F)NCC1CC2CCC1C2 (centres unmarked) [Compound 4, 1-Bicyclo[2.2.1]hept-2-ylmethyl-3-[2-fluoro-4-(2-oxo-2,3-dihydro-1H-imidazo[4,5-b]pyridin-7-yl)-benzyl]-urea] | > 1000 | 
6 | 10 to 100 |  | CC(C)(C)C1CCN(C(=O)NCc2ccc(-c3ccnc4[nH]c(=O)[nH]c34)cc2F)C1 (centres unmarked) [Compound 5, 3-tert-Butyl-pyrrolidine-1-carboxylic Acid 2-fluoro-4-(2-oxo-2,3-dihydro-1H-imidazo[4,5-b]pyridin-7-yl)-benzylamide] |  | 
7 | 10 to 100 |  | CC(C)(C)c1nc(C(=O)NCc2ccc(-c3ccnc4[nH]c(=O)[nH]c34)cc2F)cs1 [Compound 6, 2-tert-Butyl-thiazole-4-carboxylic Acid 2-fluoro-4-(2-oxo-2,3-dihydro-1H-imidazo[4,5-b]pyridin-7-yl)-benzylamide] |  | 
8 | 100 to 1000 |  | CC(C)(C)c1nnc(C(=O)NCc2ccc(-c3ccnc4[nH]c(=O)[nH]c34)cc2F)o1 [Compound 7, 5-tert-Butyl-[1,3,4]oxadiazole-2-carboxylic Acid 2-fluoro-4-(2-oxo-2,3-dihydro-1H-imidazo[4,5-b]pyridin-7-yl)-benzylamide] |  | 
9 | > 1000 |  | CC(C)(C)c1ccc(C(=O)NCc2ccc(-c3ccnc4[nH]c(=O)[nH]c34)cc2F)cn1 [Compound 8, 6-tert-Butyl-N-[2-fluoro-4-(2-oxo-2,3-dihydro-1H-imidazo[4,5-b]pyridin-7-yl)-benzyl]-nicotinamide] |  | 
10 | > 1000 |  | CC(C)(O)c1ccc(C(=O)NCc2ccc(-c3ccnc4[nH]c(=O)[nH]c34)cc2F)cc1 [Compound 9, N-[2-Fluoro-4-(2-oxo-2,3-dihydro-1H-imidazo[4,5-b]pyridin-7-yl)-benzyl]-4-(1-hydroxy-1-methyl-ethyl)-benzamide] |  | 
11 | > 1000 |  | CC(C)(C)c1noc(C(=O)NCc2ccc(-c3ccnc4[nH]c(=O)[nH]c34)c(CO)c2)n1 [Compound 10, 3-tert-Butyl-[1,2,4]oxadiazole-5-carboxylic Acid 3-hydroxymethyl-4-(2-oxo-2,3-dihydro-1H-imidazo[4,5-b]pyridin-7-yl)-benzylamide] |  | 
12 | < 10 |  | CC(C)(C)c1noc(C(=O)NC2CCCCc3cc(-c4ccnc5[nH]c(=O)[nH]c45)ccc32)n1 (centres unmarked) [Compound 11, 3-tert-Butyl-[1,2,4]oxadiazole-5-carboxylic Acid [2-(2-oxo-2,3-dihydro-1H-imidazo[4,5-b]pyridin-7-yl)-6,7,8,9-tetrahydro-5H-benzocyclohepten-5-yl]-amide] |  | 10 to 100
13 | < 10 |  | CC(C)(C)c1noc(C(=O)NC2CCCCc3cc(-c4ccnc5[nH]c(=O)[nH]c45)ccc32)n1 (centres unmarked) [Compound 12, 3-tert-Butyl-[1,2,4]oxadiazole-5-carboxylic Acid [2-(2-oxo-2,3-dihydro-1H-imidazo[4,5-b]pyridin-7-yl)-6,7,8,9-tetrahydro-5H-benzocyclohepten-5-yl]-amide] | < 10 | 
14 |  |  | CC(C)(C)c1cc(C(=O)NC2CCCCc3cc(-c4ccnc5[nH]c(=O)[nH]c45)ccc32)on1 (centres unmarked) [Compound 14, Butyl-isoxazole-5-carboxylic Acid [2-(2-oxo-2,3-dihydro-1H-imidazo[4,5-b]pyridin-7-yl)-6,7,8,9-tetrahydro-5H-benzocyclohepten-5-yl]-amide] | 100 to 1000 | 
15 | 10 to 100 |  | CC(C)(C)c1noc(C(=O)NC2CCCc3cc(-c4ccnc5[nH]c(=O)[nH]c45)ccc32)n1 (centres unmarked) [Compound 15, 3-tert-Butyl-[1,2,4]oxadiazole-5-carboxylic Acid [6-(2-oxo-2,3-dihydro-1H-imidazo[4,5-b]pyridin-7-yl)-1,2,3,4-tetrahydro-naphthalen-1-yl]-amide] |  | 
16 | < 10 |  | Cc1cc(-c2ccnc3[nH]c(=O)[nH]c23)c(F)cc1CNC(=O)c1nc(C(C)(C)C)no1 [Compound 16, 3-tert-Butyl-[1,2,4]oxadiazole-5-carboxylic Acid 5-fluoro-2-methyl-4-(2-oxo-2,3-dihydro-1H-imidazo[4,5-b]pyridin-7-yl)-benzylamide] | 100 to 1000 | 
17 | < 10 |  | CC(C)(C)c1noc(C(=O)NCc2ccc(-c3ccnc4[nH]c(=O)[nH]c34)cc2C2CC2)n1 [Compound 17, 3-tert-Butyl-[1,2,4]oxadiazole-5-carboxylic Acid 2-cyclopropyl-4-(2-oxo-2,3-dihydro-1H-imidazo[4,5-b]pyridin-7-yl)-benzylamide] | 100 to 1000 | 
18 | < 10 | 100 to 1000 | CC1(c2noc(C(=O)NCc3ccc(-c4ccnc5[nH]c(=O)[nH]c45)cc3C(F)(F)F)n2)CC1 [Compound 18, 3-(1-Methyl-cyclopropyl)-[1,2,4]oxadiazole-5-carboxylic Acid 4-(2-oxo-2,3-dihydro-1H-imidazo[4,5-b]pyridin-7-yl)-2-trifluoromethyl-benzylamide] | 10 to 100 | 
19 | < 10 |  | CC(C)(C)c1nc(C(=O)NCc2ccc(-c3ccnc4[nH]c(=O)[nH]c34)cc2C(F)(F)F)no1 [Compound 19, 5-tert-Butyl-[1,2,4]oxadiazole-3-carboxylic Acid 4-(2-oxo-2,3-dihydro-1H-imidazo[4,5-b]pyridin-7-yl)-2-trifluoromethyl-benzylamide] |  | 
20 | < 10 |  | CC1(C)Cc2cc3n(c2C1)CCN(c1cc(F)cc(-c2ccnc4[nH]c(=O)[nH]c24)c1CO)C3=O [Compound 21, 2-[5-Fluoro-2-hydroxymethyl-3-(2-oxo-2,3-dihydro-1H-imidazo[4,5-b]pyridin-7-yl)-phenyl]-7,7-dimethyl-3,4,7,8-tetrahydro-2H,6H-cyclopenta[4,5]pyrrolo[1,2-a]pyrazin-1-one] |  | 
21 | 10 to 100 |  | CC1(C)Cc2cc3n(c2C1)CCN(c1cc(F)cc(-c2ccnc4[nH]c(=O)[nH]c24)c1)C3=O [Compound 22, 2-[3-Fluoro-5-(2-oxo-2,3-dihydro-1H-imidazo[4,5-b]pyridin-7-yl)-phenyl]-7,7-dimethyl-3,4,7,8-tetrahydro-2H,6H-cyclopenta[4,5]pyrrolo[1,2-a]pyrazin-1-one] |  | 
22 | < 10 | 10 to 100 | Cc1cc(-c2ccnc3[nH]c(=O)[nH]c23)ccc1CNC(=O)c1nc(C(C)(C)C)no1 [Compound 23, 3-tert-Butyl-[1,2,4]oxadiazole-5-carboxylic Acid 2-methyl-4-(2-oxo-2,3-dihydro-1H-imidazo[4,5-b]pyridin-7-yl)-benzylamide] | 10 to 100 | 
